# Results as given in patent US20240336588A1, “COMPOSITIONS AND METHODS FOR ANTIOXIDANT AND ANTI-INFLAMMATORY THERAPEUTICS” (AVANTI BIOSCIENCES INC., priority 2021, published 2024).
# Where two headings read alike, the source gives them in different places.
# How the values were obtained:
# in vivo [1] = conditions: male, C57BL/6, mouse
# [2] = mouse, in vivo
# [3] = male, C57BL/6, mouse, in vivo
# PDE3A = PDE3A (Homo sapiens (Human), UniProt Q14432); test: Eurofins safetyscreen87 panel; format: biochemical
# [4] = molecular target: DYRK1A (HT-497, 6×His tagged rat truncated DYRK1A isoform X1 residues 1-497) (Rattus norvegicus (Rat), UniProt Q63470); test: DYRK1A ELISA assay (HT-PRD phosphorylation); format: biochemical; conditions: 100 µM ATP, 5 ng HT-497, 30 min at 30° C.
# in vivo [5] = conditions: male, C57BL/6, mouse; remark: listed apart in the source
# COX1 = COX1 (Homo sapiens (Human), UniProt P23219); test: Eurofins safetyscreen87 panel; format: biochemical
# [6] = test system: 12 transporter proteins including BCRP and PgP; test: Transporter substrate test (Eurofins panels); format: in vitro ADME
# [7] = test system: Salmonella typhimurium (TA98, TA100, TA97a, and TA1535); test: mini-Ames assay; conditions: 5 concentrations up to 100 μM, absence or presence of rat liver S9
# Experimental: The compound dissolved in DMSO was evaluated at 5 concentrations up to […] in the absence or presence of metabolic activation (rat liver S9).
# Potassium channel hERG = Potassium channel hERG (Homo sapiens (Human), UniProt Q12809); test: Eurofins safetyscreen87 panel; format: binding; conditions: c=10 μM
# COX2 = COX2 (Homo sapiens (Human), UniProt P35354); test: Eurofins safetyscreen87 panel; format: biochemical
# [8] = molecular target: DYRK1B (GST tagged full length human DYRK1B isoform p65) (Homo sapiens (Human), UniProt Q9Y463); test: DYRK1B ELISA assay; format: biochemical; conditions: 70 ng GST-DYRK1B, kinase reaction time 60 min
# Experimental: DYRK1A assay. […] After blocking, wells were washed extensively with dilution buffer before subjecting to phosphorylation. […] At the end point, wells were washed with ˜350 μl dilution buffer three times to terminate the reaction. […] Each point was run in quadruplicate with DMSO present in all assays at 0.2% final concentration. […] HT-PRD phosphorylation was subsequently determined by the sandwich antibody staining protocol, first with 100 μl mouse mAb 3D3 specific for detecting DYRK1A-phosphorylated PRD (60 min at room temperature) then with 100 μl alkaline phosphatase (AP)-linked anti-mouse secondary antibody (60 min at room temperature), followed by colorimetric reaction with 100 μl PNPP solution (PNPP substrate tablet, Thermo Fisher). […] The readings were then recorded for subsequent IC50 calculation. The DYRK1A assay protocol can also support DYRK1B and DYRK2 phosphorylation reactions in the enzyme concentration-dependent manner; therefore, the method was adapted for measuring the activity of candidate compounds against DYRK1B and DYRK2. For DYRK2, the reactions were performed as described above with 6 ng HT-DYRK2 (6×His tagged full-length human DYRK2 isoform 1). For DYRK1B, the assays were also similarly conducted but with 70 ng GST-DYRK1B (glutathione S-transferase tagged full length human DYRK1B isoform p65) and an extended kinase reaction time of 60 min.
# Data transformation, calculation, plotting, curve fitting, and IC 50 calculation were performed in KaleidaGraph (http://www.synergy.com/wordpress_650164087; Mac version 4.1). Data was corrected for background (readings from wells with only PNPP) before subsequent manipulations. […] The resulting residual activity was then plotted against its corresponding inhibitor concentrations in semi-log graph and the plot was fit to the sigmoidal equation, y=a+(b−a)/(1+(x/c)^d), for IC50 calculation.
# Compounds of Table 1, above, were examined in vitro for activity against DYRK1B, via an ELISA assay.
# [9] = test system: lipopolysaccharide (LPS)-induced TNF-α model; test: Lipopolysaccharide (LPS)-induced TNF-α model; format: in vivo, C57BL/6 mice; conditions: intranasally 3, 10, 30 mg/kg and orally 30 mg/kg, 5 days
# Experimental: 12-week-old male C57BL/6 mice were used.
# On day 5, one hour after LPS treatment, all animals were euthanized via CO2. The plasma, hippocampus and cortex were collected and immediately stored at liquid nitrogen and transferred to −80° C. Tissues were used for ELISA and Western Blot analysis to determine levels of TNF-α and pTau.
# 87 different targets = test: Eurofins safetyscreen87 panel (whole panel)
# 8 major CYP enzymes = test: CYP inhibition in human liver microsomes; format: in vitro ADME; conditions: c=10 μM
# Experimental: Compound 68 was also tested for its inhibitor activity against the 8 major CYP enzymes in human liver microsomes.
# [10] = inhaled or intranasal, 30 mg/kg
# [11] = inhaled or intranasal, 10 mg/kg
# Sequence of PDE3A (Q14432 whole entry, the tested form may be a part, canonical isoform): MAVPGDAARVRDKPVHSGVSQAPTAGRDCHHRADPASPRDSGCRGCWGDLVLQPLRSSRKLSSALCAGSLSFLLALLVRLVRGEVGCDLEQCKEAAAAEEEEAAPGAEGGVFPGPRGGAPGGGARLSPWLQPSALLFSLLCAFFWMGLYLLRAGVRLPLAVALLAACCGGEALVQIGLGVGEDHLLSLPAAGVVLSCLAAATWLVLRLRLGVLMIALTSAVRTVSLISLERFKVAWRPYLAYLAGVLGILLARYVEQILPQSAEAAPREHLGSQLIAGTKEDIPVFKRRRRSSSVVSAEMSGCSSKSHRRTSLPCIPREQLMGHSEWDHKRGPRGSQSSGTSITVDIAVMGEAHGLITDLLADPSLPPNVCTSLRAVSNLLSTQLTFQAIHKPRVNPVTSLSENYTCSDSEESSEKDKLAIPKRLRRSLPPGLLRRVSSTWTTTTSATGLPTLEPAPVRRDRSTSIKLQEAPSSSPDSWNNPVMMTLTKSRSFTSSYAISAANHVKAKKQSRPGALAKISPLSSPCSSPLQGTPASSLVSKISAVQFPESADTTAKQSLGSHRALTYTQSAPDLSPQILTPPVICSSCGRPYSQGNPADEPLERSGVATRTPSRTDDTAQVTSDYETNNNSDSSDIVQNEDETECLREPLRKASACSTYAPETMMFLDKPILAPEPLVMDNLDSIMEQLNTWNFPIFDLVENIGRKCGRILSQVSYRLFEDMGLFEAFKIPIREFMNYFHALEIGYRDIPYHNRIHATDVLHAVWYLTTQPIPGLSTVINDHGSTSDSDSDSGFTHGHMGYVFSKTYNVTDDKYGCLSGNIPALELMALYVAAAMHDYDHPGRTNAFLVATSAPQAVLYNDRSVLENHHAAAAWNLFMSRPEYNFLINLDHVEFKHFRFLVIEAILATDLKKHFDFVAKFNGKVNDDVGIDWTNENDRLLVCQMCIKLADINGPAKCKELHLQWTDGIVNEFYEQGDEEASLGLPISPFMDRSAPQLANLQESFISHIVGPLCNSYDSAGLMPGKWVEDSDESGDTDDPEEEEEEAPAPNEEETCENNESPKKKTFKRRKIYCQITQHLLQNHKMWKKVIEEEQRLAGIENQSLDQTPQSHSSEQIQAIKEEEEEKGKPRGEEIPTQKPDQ
# Sequence of DYRK1B (GST tagged full length human DYRK1B isoform p65) (Q9Y463 other isoform, or with tags, fused parts or gaps): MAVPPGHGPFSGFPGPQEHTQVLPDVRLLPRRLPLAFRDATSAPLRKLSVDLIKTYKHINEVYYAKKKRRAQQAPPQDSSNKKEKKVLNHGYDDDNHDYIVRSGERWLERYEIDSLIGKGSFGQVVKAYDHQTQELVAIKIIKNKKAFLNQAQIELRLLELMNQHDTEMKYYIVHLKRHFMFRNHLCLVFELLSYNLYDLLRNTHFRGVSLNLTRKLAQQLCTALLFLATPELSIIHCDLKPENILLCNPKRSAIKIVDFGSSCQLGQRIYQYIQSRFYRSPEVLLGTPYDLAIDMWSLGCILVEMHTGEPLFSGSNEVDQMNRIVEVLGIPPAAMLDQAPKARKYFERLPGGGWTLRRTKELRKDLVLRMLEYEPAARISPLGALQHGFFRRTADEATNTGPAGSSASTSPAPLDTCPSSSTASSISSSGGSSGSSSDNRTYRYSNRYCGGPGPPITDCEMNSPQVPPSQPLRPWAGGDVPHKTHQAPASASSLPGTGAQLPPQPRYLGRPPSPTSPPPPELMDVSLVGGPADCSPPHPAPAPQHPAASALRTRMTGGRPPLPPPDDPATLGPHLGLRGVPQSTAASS
# Sequence of Potassium channel hERG (Q12809 whole entry): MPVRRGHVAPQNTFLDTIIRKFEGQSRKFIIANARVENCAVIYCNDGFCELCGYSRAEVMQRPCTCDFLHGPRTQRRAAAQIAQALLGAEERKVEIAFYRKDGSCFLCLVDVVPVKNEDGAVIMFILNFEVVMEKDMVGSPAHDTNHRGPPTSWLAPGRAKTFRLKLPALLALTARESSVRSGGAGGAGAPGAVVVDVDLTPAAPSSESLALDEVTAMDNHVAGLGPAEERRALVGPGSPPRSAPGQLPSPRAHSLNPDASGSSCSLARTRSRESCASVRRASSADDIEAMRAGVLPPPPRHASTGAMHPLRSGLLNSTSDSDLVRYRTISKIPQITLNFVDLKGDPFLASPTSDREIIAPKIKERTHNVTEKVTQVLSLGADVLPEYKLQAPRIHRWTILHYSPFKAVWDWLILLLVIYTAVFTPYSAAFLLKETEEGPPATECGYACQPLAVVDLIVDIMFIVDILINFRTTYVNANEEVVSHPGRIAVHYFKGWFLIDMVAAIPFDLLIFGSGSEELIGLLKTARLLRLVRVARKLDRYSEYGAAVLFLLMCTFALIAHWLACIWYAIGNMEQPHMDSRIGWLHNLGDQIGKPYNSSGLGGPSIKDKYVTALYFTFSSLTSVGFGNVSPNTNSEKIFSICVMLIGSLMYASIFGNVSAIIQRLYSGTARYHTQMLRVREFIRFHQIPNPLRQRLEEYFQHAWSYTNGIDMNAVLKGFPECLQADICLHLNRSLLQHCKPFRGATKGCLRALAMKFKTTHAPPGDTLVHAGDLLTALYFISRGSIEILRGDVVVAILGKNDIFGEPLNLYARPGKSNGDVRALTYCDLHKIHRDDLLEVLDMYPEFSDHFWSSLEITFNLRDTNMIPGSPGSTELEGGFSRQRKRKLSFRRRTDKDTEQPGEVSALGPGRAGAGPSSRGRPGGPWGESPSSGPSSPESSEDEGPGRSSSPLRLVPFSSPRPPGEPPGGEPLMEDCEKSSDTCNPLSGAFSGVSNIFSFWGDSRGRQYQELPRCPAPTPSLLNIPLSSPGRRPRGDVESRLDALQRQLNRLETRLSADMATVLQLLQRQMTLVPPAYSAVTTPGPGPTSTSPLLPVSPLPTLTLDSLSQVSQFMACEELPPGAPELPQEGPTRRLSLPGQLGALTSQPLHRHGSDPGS
# Sequence of COX2 (P35354 18-604): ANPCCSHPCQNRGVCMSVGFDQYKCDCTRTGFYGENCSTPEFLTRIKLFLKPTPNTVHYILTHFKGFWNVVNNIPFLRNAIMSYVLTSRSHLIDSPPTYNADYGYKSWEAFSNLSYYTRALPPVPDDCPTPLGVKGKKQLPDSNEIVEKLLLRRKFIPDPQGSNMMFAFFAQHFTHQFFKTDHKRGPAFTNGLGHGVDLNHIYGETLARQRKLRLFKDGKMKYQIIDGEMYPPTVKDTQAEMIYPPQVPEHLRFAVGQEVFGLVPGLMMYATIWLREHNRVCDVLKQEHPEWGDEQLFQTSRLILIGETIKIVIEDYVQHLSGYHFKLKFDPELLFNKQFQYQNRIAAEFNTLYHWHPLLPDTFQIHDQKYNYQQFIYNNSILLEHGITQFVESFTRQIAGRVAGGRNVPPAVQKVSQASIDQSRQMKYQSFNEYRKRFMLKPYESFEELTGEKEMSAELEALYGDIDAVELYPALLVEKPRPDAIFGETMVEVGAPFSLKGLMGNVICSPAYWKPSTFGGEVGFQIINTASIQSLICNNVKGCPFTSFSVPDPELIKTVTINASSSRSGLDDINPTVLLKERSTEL
# Sequence of COX1 (P23219 24-599): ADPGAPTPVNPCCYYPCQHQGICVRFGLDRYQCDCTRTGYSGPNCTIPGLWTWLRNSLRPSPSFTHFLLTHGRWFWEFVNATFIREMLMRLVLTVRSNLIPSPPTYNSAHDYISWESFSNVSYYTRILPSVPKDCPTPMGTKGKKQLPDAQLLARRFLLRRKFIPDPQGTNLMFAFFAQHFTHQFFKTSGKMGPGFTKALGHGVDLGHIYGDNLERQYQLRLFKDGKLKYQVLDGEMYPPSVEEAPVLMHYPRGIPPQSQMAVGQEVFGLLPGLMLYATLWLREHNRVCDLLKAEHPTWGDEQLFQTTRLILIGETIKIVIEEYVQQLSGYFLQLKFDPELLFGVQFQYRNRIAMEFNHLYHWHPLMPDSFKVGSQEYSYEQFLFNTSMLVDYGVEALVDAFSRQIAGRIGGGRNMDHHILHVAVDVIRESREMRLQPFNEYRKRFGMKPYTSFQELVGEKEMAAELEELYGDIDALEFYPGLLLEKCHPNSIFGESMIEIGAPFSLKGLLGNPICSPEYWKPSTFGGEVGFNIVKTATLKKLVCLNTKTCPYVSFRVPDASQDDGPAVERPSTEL
compound,measurement,setting,value
"COc1cc(C(=O)O[C@@H]2Cc3c(O)cc(O)cc3O[C@H]2c2cc(O)c(O)c(O)c2)c(F)c(O)c1O [Compound 68, (2S,3R)-5,7-dihydroxy-2-(3,4,5-trihydroxyphenyl)chroman-3-yl 2-fluoro-3,4-dihydroxy-5-methoxybenzoate]",concentration at 1 h,in vivo [1],120 ng/g
same,T1/2,[2]; inhaled or intranasal,1.06 H
same,T1/2,[2]; [10],1.97 H
same,T1/2,"[2]; iv, 5 mg/kg",1.04 H
same,T1/2,"[2]; po, 30 mg/kg",1.27 H
same,time measurable in whole-brain homogenate after dosing,[3],4 h
same,IC50,PDE3A,380 nM
same,IC50,[4],< 100 nM
same,CL/F,in vivo [5]; 30 mg/kg,842 mL/min/kg
same,Vd/F,in vivo [5]; 30 mg/kg,17.1 L/kg
same,AUC(0-inf),in vivo [5]; [11],716 ng·h/mL
same,AUC(0-t),in vivo [5]; [11],702 ng·h/mL
same,CL/F,in vivo [5]; [11],240 mL/min/kg
same,Cmax,in vivo [5]; [11],489 ng/mL
same,Vd/F,in vivo [5]; [11],41.7 L/kg
same,bioavailability,in vivo [5]; [11],> 100%
same,AUC(0-inf),in vivo [5]; [10],4990 ng·h/mL
same,AUC(0-t),in vivo [5]; [10],4950 ng·h/mL
same,Cmax,in vivo [5]; [10],3140 ng/mL
same,bioavailability,in vivo [5]; [10],> 100%
same,AUC(0-inf),"in vivo [5]; iv, 5 mg/kg",348 ng·h/mL
same,AUC(0-t),"in vivo [5]; iv, 5 mg/kg",334 ng·h/mL
same,Cmax,"in vivo [5]; iv, 5 mg/kg",257 ng/mL
same,Vd,"in vivo [5]; iv, 5 mg/kg",22 L/kg
same,clearance,"in vivo [5]; iv, 5 mg/kg",240 mL/min/kg
same,AUC(0-inf),"in vivo [5]; po, 30 mg/kg",92 ng·h/mL
same,AUC(0-t),"in vivo [5]; po, 30 mg/kg",78 ng·h/mL
same,CL/F,"in vivo [5]; po, 30 mg/kg",100 mL/min/kg
same,Cmax,"in vivo [5]; po, 30 mg/kg",41 ng/mL
same,Vd/F,"in vivo [5]; po, 30 mg/kg",602 L/kg
same,bioavailability,"in vivo [5]; po, 30 mg/kg",4%
same,IC50,COX1,1200 nM
same,substrate of transporter proteins,[6],not a substrate of any of them
same,cytotoxicity in bacteria,[7],No evidence of cytotoxicity
same,mutagenicity,[7],not mutagenic
same,activity against the Potassium channel hERG,Potassium channel hERG,No activity
same,IC50,COX2,182 nM
same,IC50,[8],< 100 nM
same,lipopolysaccharide-induced expression of TNF-alpha,"[9]; hippocampus and plasma, ELISA, FIGS. 3-4",inhibit
same,lipopolysaccharide-induced pTau,"[9]; hippocampus, Western Blot (AT8 antibody), FIG. 5",inhibit
same,activity against other ion channels,87 different targets; c=10 μM,No activity
same,profile over 87 different targets,"87 different targets; screened at c=10 µM, significant activity only against COX1, COX2, PDE3A",very clean profile
same,inhibition of the CYP enzymes,8 major CYP enzymes,no inhibition
